74 molecules from PubChem BioAssay AID1996 can be followed below.

The structures appear in SMILES notation. In brackets after ≈: the same amount, converted by molar mass.

For the series the following is noted: buffer; pH 7.4; 200.0 µM.
The term solubility (kinetic) denotes solubility judged after dilution from a stock solution rather than from solid. The molecule `CS(=O)(=O)N(CC(=O)Nc1ccc(F)cc1F)C1CCCCC1` gave a solubility (kinetic) above 52 µg/mL. In the case of `COC(=O)c1sccc1NC(=O)Nc1ccc(C(C)=O)cc1` it was 8.4 µg/mL (≈ 26.4 µM); in that of `O=C(COC(=O)c1cc(S(=O)(=O)N2CCOCC2)ccc1F)NCCc1ccc(F)cc1`, above 70.3 µg/mL. As to `CN1CCN(c2nnc(-c3ccc(F)cc3)c3ccccc23)CC1`, the kinetic solubility is above 48.4 µg/mL. In the case of `COc1ccc(OC)c(/C=C2\SC(N3CCCCC3)=NC2=O)c1` it was 5.4 µg/mL (≈ 16.2 µM). As to `O=C(O)CC1(CC(=O)Nc2ccc(F)cc2F)CCCCC1`, the kinetic solubility is above 46.7 µg/mL. Turning to `Cc1ccc(C(=O)OCC(=O)N(C)c2ccccc2)cc1C`, the kinetic solubility came out at 41.4 µg/mL (≈ 139 µM). `Cl.c1ccc2c(CC3=NCCN3)cccc2c1` returned a solubility (kinetic) above 37 µg/mL. In the case of `COc1ccccc1/C=C/c1nc2ccc(OC(C)=O)cc2c(=O)o1` it was below 0.7 µg/mL; in that of `CN(C)CC(c1ccccc1)c1ccccc1.Cl`, 34.3 µg/mL; in that of `Cc1ccc(NC(=O)C(C)C(=O)Nc2ccc(C)cc2)cc1`, 1.5 µg/mL (≈ 5.06 µM). In the case of `COc1ccc2c(c1)CC(C(=O)Nc1ccc(Cl)cc1)/C(=N/O)O2` (centres undefined) it was below 0.4 µg/mL; in that of `Cc1ccc(OC(C)C(=O)OCC(=O)Nc2sccc2C(N)=O)cc1` (centres undefined), above 54.4 µg/mL; in that of `Nc1nc(-c2c(Cl)cccc2Cl)no1`, 32.7 µg/mL (≈ 142 µM). In the case of `CC(C)CNC(=O)C1CCCN(C(=O)NCc2ccccc2)C1` (centres undefined) it was above 47.6 µg/mL; in that of `CCOc1ccc(NC(=O)CCNC(=O)c2ccco2)cc1`, above 45.3 µg/mL. `N#Cc1ccc(CSc2nc(N)cc(N)n2)cc1` displayed a kinetic solubility of 37.3 µg/mL (≈ 145 µM). In the case of `Cc1cccc(C(=O)O/N=C(\N)Cc2cccc3ccccc23)c1` it was 2.3 µg/mL (≈ 7.22 µM); in that of `CCn1c(=O)c(C(=O)NCc2ccc3c(c2)OCO3)c(O)c2ccccc21`, below 0.4 µg/mL; in that of `CCC(=O)NCc1ccc2[nH]c(C)cc2c1`, 32.3 µg/mL (≈ 149 µM). Molecule `Cc1sc2nc(C)n(/N=C/N(C)C)c(=O)c2c1C` showed a kinetic solubility above 39.7 µg/mL. Take `Cc1ccc(S(=O)(=O)N2CCCCC2)cc1C(=O)N1C(C)CCCC1C` (centres undefined): the kinetic solubility is above 56.8 µg/mL. In turn, `O=C(Nc1ccc(CN2CCOCC2)cc1)c1cc(Cl)ccc1Cl` had a solubility (kinetic) of 50.1 µg/mL (≈ 137 µM). The molecule `S=C(NCc1ccccc1)Nc1cccc2cnccc12` returned a solubility (kinetic) above 44 µg/mL. `COc1ccccc1NC(=O)COc1ccc(C(=O)NCC2CCCO2)cc1OC` (centres undefined) had a kinetic solubility of 51.5 µg/mL (≈ 124 µM).

`O=C(O)CCSc1nnc(SCC(=O)NC2CCS(=O)(=O)C2)s1` (centres undefined) gave a solubility (kinetic) above 59.6 µg/mL. For `CCOc1ccc(N(CC(=O)N2CCCCCC2)S(C)(=O)=O)cc1`, the solubility (kinetic) was found to be 31 µg/mL (≈ 87.5 µM). With `Cc1ccc(OCC(=O)N2c3ccccc3CC2C)c([N+](=O)[O-])n1` (centres undefined), the kinetic solubility amounted to 21.3 µg/mL (≈ 65.1 µM).

In turn, `CC(C)Cn1c(=O)[nH]c(=O)c2c(C(F)(F)F)cc(-c3ccccc3)nc21` yielded a kinetic solubility below 0.3 µg/mL. In the case of `O=C(COc1ccccc1)Nc1cc(Cl)ccc1Cl` it was below 0.6 µg/mL; in that of `CCNc1nc(NC(C)C)nc(N(C)C#N)n1`, above 35.3 µg/mL; in that of `COc1cc(OC)c(OC)cc1CN1CCSCC1`, 32.3 µg/mL (≈ 114 µM).

As to `O=C(NC1CCN(C(=O)Nc2cccc(Cl)c2)CC1)c1ccccc1`, the solubility (kinetic) is 0.4 µg/mL (≈ 1.12 µM). `Cc1ccsc1C(=O)C1CCCN(Cc2ccc(O)cc2)C1` (centres undefined) showed a solubility (kinetic) of 36.8 µg/mL (≈ 117 µM).

With `O=C1OCCN1S(=O)(=O)Nc1ccccc1`, the kinetic solubility is above 36.3 µg/mL. In the case of `COc1cc(/C=C/C(=O)OCC(=O)NC(C)c2ccccc2)cc(OC)c1OC` (centres undefined) it was 54.9 µg/mL (≈ 137 µM); in that of `Cc1cc(C(=O)Nc2ccccc2Cl)c2ccccc2n1`, 36.8 µg/mL (≈ 124 µM). In the case of `COc1ccccc1C(=O)Nc1c[nH]c(=O)[nH]c1=O` it was 3.4 µg/mL (≈ 13 µM); in that of `CC(C)c1ccc(NC(=S)NC2CC3C=CC2C3)cc1` (centres undefined), 1.4 µg/mL (≈ 4.89 µM); in that of `COC(=O)CCc1nc2ccccc2nc1OC`, above 36.9 µg/mL. On to `CC(c1ccccc1)n1c(Br)nc2c1c(=O)[nH]c(=O)n2C` (centres undefined), for which the kinetic solubility stood at 11.2 µg/mL (≈ 32.1 µM).

Regarding `O=C(NC(=S)N1CCOCC1)c1ccccc1Cl`, the solubility (kinetic) was above 42.7 µg/mL.

`Cc1ccc(CNc2ncnc3cc(Cl)ccc23)cc1` yielded a solubility (kinetic) of 5 µg/mL (≈ 17.6 µM).

The molecule `O=C(NC1CCN(C(=O)Nc2cccc(Cl)c2)CC1)c1ccco1` showed a solubility (kinetic) of 46.1 µg/mL (≈ 133 µM).

For `O=C1C(Cc2ccccc2O)NC(=S)N1c1ccccc1` (centres undefined), the solubility (kinetic) turned out to be 44.6 µg/mL (≈ 149 µM). `CCc1cccc(C)c1NC(=O)CCOc1ccccc1`: the kinetic solubility amounted to 10.9 µg/mL (≈ 38.5 µM). The molecule `Cc1cc(C(=O)NC2CC2)c2ccccc2n1` returned a kinetic solubility of 29.5 µg/mL (≈ 130 µM). `O=C(c1ccc(-c2ccccc2)cc1)N1CCN(c2ccc(F)cc2)CC1` displayed a kinetic solubility of 2.4 µg/mL (≈ 6.66 µM).

With `O=c1cc(/N=C/c2coc3cc(Br)ccc3c2=O)[nH]c(=S)[nH]1`, the solubility (kinetic) was determined as 3 µg/mL (≈ 7.93 µM). In the case of `CCC(C)n1c(O)c(C=NC(C)c2ccccc2)c(=O)[nH]c1=S` (centres undefined) it was 4.3 µg/mL (≈ 13 µM); in that of `CN(C(=O)c1c[nH]c(=O)cc1C(F)(F)F)c1ccc(Cl)c(Cl)c1`, 40.8 µg/mL (≈ 112 µM); in that of `COC(=O)c1ccc(C2NC(=O)CCC2[N+](=O)[O-])cc1` (centres undefined), above 41.7 µg/mL. In the case of `COCCn1c(SCC(=O)Nc2ccc3[nH]c(=O)[nH]c3c2)nc2ccccc21` it was 19.4 µg/mL (≈ 48.8 µM); in that of `COCCCNC(=S)Nc1cc2oc3ccccc3c2cc1OC`, 3.9 µg/mL (≈ 11.3 µM); in that of `Cn1c(/C(C#N)=C(\O)c2cccc(F)c2)nc2ccccc21`, 0.3 µg/mL (≈ 1.02 µM). The molecule `CSc1ncccc1C(=O)Nc1ccc(C)cn1` showed a solubility (kinetic) above 38.9 µg/mL. In the case of `CCCCCCCCCC(=O)N[C@H](CN1CCOCC1)[C@H](O)c1ccccc1.Cl` it was above 64.1 µg/mL; in that of `O=S(=O)(c1cccc(-c2n[nH]c(=S)n2-c2ccccc2Cl)c1)N1CCOCC1`, above 65.5 µg/mL; in that of `CN1CCN(C(=O)c2ccc(-c3ccccc3)cc2)CC1`, above 42.1 µg/mL. In the case of `CC1CCN(C(=O)CCNC(=O)c2ccccc2Cl)CC1` it was 41.1 µg/mL (≈ 133 µM); in that of `COc1ccc(OCCC(=O)OCC(=O)NCc2ccc(F)cc2)cc1`, 33.5 µg/mL (≈ 92.7 µM); in that of `COc1ccc(Nc2ccncc2[N+](=O)[O-])cc1`, above 36.8 µg/mL. On to `CC1(c2ccc([N+](=O)[O-])cc2)Nc2ccccc2S1` (centres undefined), for which the kinetic solubility was determined as 12.1 µg/mL (≈ 44.4 µM). In the case of `Nc1cccc(CCc2ccncc2)c1` it was above 29.7 µg/mL; in that of `O=C(CCCC(=O)c1ccccc1)NCc1ccccc1`, above 42.2 µg/mL. `S=C(NCc1ccc(Cl)cc1)NN1CCOCC1` had a solubility (kinetic) above 42.9 µg/mL.

`COc1cc(OC)c(C2Nc3cccc4cccc(c34)N2)c(OC)c1` gave a solubility (kinetic) of 4.4 µg/mL (≈ 13.1 µM).

As for `CCCN(C(=O)Cc1coc2cc(OC)ccc12)C1CCS(=O)(=O)C1` (centres undefined), the solubility (kinetic) is above 54.8 µg/mL. Consider `CC(=O)c1cn(CC(=O)Nc2ccc(C)c(C)c2)c2ccccc12`, for which the solubility (kinetic) was below 0.3 µg/mL. `Cn1nccc1C(=O)OCC(=O)Nc1ccccc1` showed a kinetic solubility above 38.9 µg/mL.

`O=C(COC(=O)CCC(=O)c1cccs1)Nc1ccc(F)c(F)c1F` registered a kinetic solubility of 8.1 µg/mL (≈ 21.8 µM). In the case of `CCCc1nc(NCCO)c(C#N)c2c1CCCC2` it was above 38.9 µg/mL. In the case of `Cc1ccc(C(=O)N2CCCCC2C(=O)O)cc1S(=O)(=O)N1CCCCC1` (centres undefined) it was above 59.2 µg/mL. For `CN1CCCN(C(=O)CNC(=O)c2ccccc2Br)CC1`, the kinetic solubility is above 53.1 µg/mL.
